Measurements as given in patent US7595176B2, “Methods and reagents for quantitative analysis of Dehalococcoides species” (Georgia Tech Research Corporation, priority 2003, dated 2009).

What was measured:
[1] = tested on: VC-dechlorinating Dehalococcoides population in the Bachman culture; test: Reductive dechlorination kinetics of chloroethenes in the VC-dechlorinating Bachman enrichment culture; assay type: cell-based, Dehalococcoides sp.; conditions: for Dechlorination by the culture after prolonged enrichment with VC: chloroethene added alone, without DCEs or VC; for Ks (half-velocity coefficient) / kX (maximum aqueous dechlorination rate): pyruvate-fed cultures, Monod equation, nonlinear regression
Procedure: All experiments were carried out in serum bottles (160 ml nominal volume) containing 100 ml (final volume) of growth medium, which were sealed with black butyl rubber septa (Wheaton, Ochelata, Okla.). Anoxic, bicarbonate-buffered mineral salts medium was prepared, and was amended with pyruvate (10 mM), lactate (5 mM or 10 mM), acetate plus formate (5 mM each), or acetate (5 mM) as substrates. Löffler et al., Appl. Environ. Microbiol., 1997, 63:4982-4985. Unless indicated otherwise, H2 was only added to acetate-fed cultures at a partial pressure of 9 kPa. Routinely, L-cysteine and Na2S×9 H2O (0.2 mM each) were used to chemically reduce the medium. DL-dithiothreitol (DTT) was tested at 0.5 mM concentration. Titanium(III) (0.5 mM) was added from a filter-sterilized citrate solution after the medium had been autoclaved. Löffler et al., Appl. Environ. Microbial., 1996, 62:3809-3813; Zehnder et al., Science, 1976, 194:1165-1166. Gaseous VC was added as a single dose of 1 to 6 ml per serum bottle resulting in initial aqueous concentrations ranging from 0.27 to 1.6 mM. Other chloroethenes were added using Hamilton glass syringes (Hamilton, Reno, Nev.) to initial aqueous concentrations ranging from 0.2 to 0.5 mM. Biogenic cis-DCE was produced from PCE (0.5 mM) using a culture of ‘Desulfuromonas michiganensis’.
After complete dechlorination to cis-DCE (0.5 mM), the cultures were amended with pyruvate and inoculated with the VC-dechlorinating culture. New cultures were routinely seeded with a 2% (vol/vol) inoculum using plastic syringes. To minimize the contact of the inoculum with air present in the plastic of the syringes during transfers, the syringes were reduced with a sterile 0.5 mM aqueous sulfide solution for 5-10 min prior to transfers. Gaseous substrates were added with plastic syringes that had been previously flushed with H2- and O2-free N2.
All experiments were set up in triplicates, and all results were verified by at least one additional independent experiment. Culture bottles were incubated upside down at room temperature (22-25° C.) without agitation in the dark, unless indicated otherwise. Duplicate controls (no inoculum or autoclaved inoculum) accompanied each experiment. Ethene formation strictly depended on a viable inoculum, and loss of VC through the septum was negligible.
Chloroethenes were measured with a Hewlett Packard model 6890 gas chromatograph equipped with a HP-624 column (60 m length, 0.32 mm diameter, 1.8 μm film thickness) and a flame ionization detector (FID). Headspace samples of 100 μl were withdrawn with gas-tight 250 μl Hamilton glass syringes with Teflon-lined valves (model # 1725), and manually injected into a split injector operated at a split ratio of 2:1. All syringes were flushed with H2- and O2-free N2 gas to prevent contamination of the cultures with these gases. A temperature program that allowed the simultaneous analysis of all chloroethenes and ethene was described previously. He et al., Environ. Sci. Technol., 2002, 36: 3945-3952. Standards were prepared as described and 7-point calibration curves were established for all chloroethenes and ethene at room temperature. Gossett, Environ. Sci. Technol., 1987, 21: 202-208. The instrument detection limits for VC and ethene were 7.3 and 8.6 μM, respectively. For quantification of VC and ethene at different temperatures, concentrations of each compound were determined from 3-point calibration curves.
[formula] was used to describe the substrate reaction kinetics, where S is the chloroethene concentration, KS is the half-saturation coefficient, k is the maximum chloroethene dechlorination rate per unit of biomass, and X is the dechlorinating biomass concentration. It was assumed that Xlag was zero during the lag period due to the small inoculum transferred, and X remained constant during the phase of active dechlorination due to slow growth of the dechlorinating population(s). […]

[2] = 25° C.; Gossett 1987; cited from earlier work

Row | Structure (SMILES) | Dimensionless Henry coefficient [2] | Ks (half-velocity coefficient) [1] | kX (maximum aqueous dechlorination rate) [1] | other results
1 | ClC(Cl)=C(Cl)Cl [PCE, Perchloroethene] |  |  |  | Dechlorination by the culture after prolonged enrichment with VC [1]: failed to dechlorinate
2 | Cl/C=C/Cl [trans-DCE] | 0.384 | 8.5 ± 0.3 µM | 26.2 ± 0.7 μMday^−1 | 
3 | C=C(Cl)Cl [1,1-DCE] | 1.069 |  |  | 
4 | CC1(C)S[C@@H]2[C@H](NC(=O)[C@H](N)c3ccccc3)C(=O)N2[C@H]1C(=O)O [ampicillin, reference compound] |  |  |  | Effect on dechlorination rates of DCEs and VC to ethene ([1]; compared with cultures without the antibiotic): about one third less
5 | ClC=C(Cl)Cl [TCE, trichloroethene] |  |  |  | Dechlorination by the culture after prolonged enrichment with VC [1]: failed to dechlorinate
6 | Cl/C=C\Cl [cis-DCE] | 0.167 | 8.9 ± 0.4 µM | 23.1 ± 0.8 μMday^−1 | 
7 | C=CCl [VC, vinyl chloride] | 1.137 | 5.8 ± 0.4 µM | 54.4 ± 3.5 μMday^−1 | VC dechlorination rate ([1]; acetate-enriched cultures): 2.4 ± 0.5 µmol/L/day
